US20200290950A1, “ALKAMIDE COMPOUNDS AND USES THEREOF” (NORTH CAROLINA STATE UNIVERSITY, priority 2017, published 2020)

Legend:
RBL-2H3 cells [1] = experiment: β-hexosaminidase degranulation assay, RBL-2H3 cells (Example 1); type: cell-based, rat
Description: FIGS. 1A-1F. A15 inhibits BMMC and RBL-2H3 cell degranulation. The structure of alkamide A15 is shown with different functional groups and carbons in the fatty acid chain labeled (FIG. 1A). BMMCs were plated and stimulated 4 hrs later with 1 μM A23187 and the indicated concentrations of A15 or vehicle only. The percent degranulation was measured after 1 hr (FIG. 1B). RBL-2H3 cells were treated with A23187 and the percent degranulation was determined 1 hr later (FIG. 1C) or every 10 min over a 1 hr time course (FIG. 1D). RBL-2H3 cells were plated and incubated for 4 hrs before the media was aspirated and replaced with media containing 1 μg/mL IgE anti-DNP. Cells were incubated overnight and washed prior to stimulation. […] RBL-2H3 cells were stimulated for 1 hr in Tyrode's buffer before supernatants were collected and levels of histamine were measured using a competitive inhibition EIA kit (FIG. 1F). […]
FIGS. 5A-5D. […] Percent degranulation was measured 1 hr after stimulation with 1 μM A23187 in combination with vehicle only or 25 μg/mL of the indicated E. purpurea samples. […] RBL-2H3 cells were loaded with fluo-4 AM using the Fluo-4 AM Direct™ Calcium Assay Kit and fluorescence was measured on a microplate reader. […]
RBL-2H3 cell and BMMC degranulation was measured using a β-hexosaminidase (β-hex) activity assay. […] Absorbance was read at 405 nm on a BioTek Synergy HT microplate reader. […]

RBL-2H3 cells [2] = experiment: TNF-α production, ELISA, 8 hrs (Example 1); type: cell-based, rat; conditions: 1 μM A23187, all doses tested
Description: FIGS. 6A-6B. A15 inhibits de novo production of TNF-α and PGE2 from RBL-2H3 cells. RBL-2H3 cells were plated and incubated overnight prior to stimulation. Cells were stimulated with 1 μM A23187 in combination with the indicated doses of A15. Supernatants were collected 8 hrs later and TNF-α (FIG. 6A) or PGE2 (FIG. 6B) levels were measured using ELISA kits. Data shown are the means±SEM from 3 independent experiments. Statistical analysis was performed using a one-way ANOVA with Dunnett's post-hoc test, *p<0.05, **p<0.01, ***p<0.001.
Bone marrow cells were isolated from the femurs of 6-8 week old C57BL/6 mice and cultured in RPMI-1640 containing 10% heat-inactivated FBS, non-essential amino acids, HEPES buffer, sodium pyruvate, 100 U/mL penicillin, 100 μg/mL streptomycin, 5 ng/mL mIL-3, and 5 ng/mL mSCF for 4-6 weeks until mature, bone marrow-derived mast cells (BMMCs) were obtained, as described previously (Kuehn et al., 2010). Differentiation into >98% mast cells was confirmed through toluidine blue staining (1%, pH 1). RBL-2H3, RAW 264.7, and Jurkat cells were obtained from the American Type Culture Collection (Manassas, Va.). […] Optical density was determined using a Synergy HT microplate reader (BioTek Instruments, Inc, Winooski, Vt.). […]

Question: Which degranulation (RBL-2H3 cells [1]; RBL-2H3 cells activated by IgE anti-DNP and DNP-BSA) does the source give for `CCCCCCC/C=C/C=C/C(=O)NCC(C)C` [A15, (2E,4E)-N-Isobutyldodeca-2,4-dienamide] here?
Answer: inhibited degranulation

Question: And the inhibition at 100 µM (RBL-2H3 cells [1]; Rattus norvegicus, A23187-stimulated RBL-2H3 cells, 100 μM, 1 hr, read-out: inhibition of release of β-hex)?
Answer: 48.4%

Question: And the “production of TNF-α” value (RBL-2H3 cells [2])?
Answer: significant, dose dependent inhibition
